Converted amounts (≈) assume the structure as drawn. Where a name gives a salt, the structure may show the parent alone. Read-outs that look alike come from different tables or passages of the source.
Columns and labels:
Type in all cases: cell-based
[1] = test system: Escherichia coli strain 25922; experiment: Determination of MIC against bacteria (Table 1), E. coli 25922; conditions: read-out: minimum inhibitory concentration (MIC), E. coli 25922
Procedure: (§1) Antibiotic indicator strains Escherichia coli strain 25922, Enterococcus faecalis 29212, Pseudomonas aeruginosa 27853, and Staphylococcus aureus 29213 are obtained from the American Type Tissue Culture Collection (ATCC) in Rockville, Md. The cystic fibrosis isolate, Pseudomonas aeruginosa 39324, is also obtained from ATCC. Bacteria are routinely cultivated in cation-supplemented Mueller-Hinton broth (CAMHB) or agar at 37° C.
(§2) The minimum inhibitory concentration (MIC) of glycosylated and non-glycosylated steroidal polyamines for antibiotic indicator strains is determined by dissolving the test compounds in deionized water to a final concentration of 1 mg per mL. […] These solutions are sterilized by filtration through 0.22 micron syringe filters.
(§3) Stock solutions of individual compounds are serially diluted (two-fold) in sterile CAMHB in 96-well tissue culture dishes (Falcon) and inoculated with antibiotic indicator strains that are prepared as described below.
(§4) Antibiotic indicator strains are grown in 5 mL of CAMHB for 3-4 h at 37° C. with shaking (200 rpm) on a New Brunswick rotary shaker. Bacteria are adjusted to a turbidity that matched a 0.5 McFarland standard (ca. 10^8 CFU per mL) in sterile 0.85% saline. These bacterial suspensions are diluted 1:20 in sterile 0.85% saline and 10 μL (ca. […]) of each suspension is used to inoculate individual wells of a 96 well plate that contained different concentrations of the test compounds. Following inoculation, the plates are sealed with plastic tape, incubated for 24 h at 37° C. and visually inspected for bacterial growth. CAMHB inoculated with each of the antibiotic test strains and uninoculated CAMBH plus each of the test compounds served as positive and negative controls.

[2] = test system: Pseudomonas aeruginosa 27853; experiment: Determination of MIC against bacteria (Table 1), P. aeruginosa 27853; conditions: read-out: minimum inhibitory concentration (MIC), P. aeruginosa 27853
Procedure: as §1, §2, §3, §4

[3] = test system: Enterococcus faecalis 29212; experiment: Determination of MIC against bacteria (Table 1), E. faecalis 29212; conditions: read-out: minimum inhibitory concentration (MIC), E. faecalis 29212
Procedure: as §1, §2, §3, §4

[4] = test system: Staphylococcus aureus 29213; experiment: Determination of MIC against bacteria (Table 1), S. aureus 29213; conditions: read-out: minimum inhibitory concentration (MIC), S. aureus 29213
Procedure: as §1, §2, §3, §4

[5] = test system: Pseudomonas aeruginosa 39324; experiment: Determination of MIC against bacteria (Table 1), P. aeruginosa 39324 (cystic fibrosis isolate); conditions: read-out: minimum inhibitory concentration (MIC), P. aeruginosa 39324
Procedure: as §1, §2, §3, §4

[6] = Escherichia coli, 25922, CAMHB, 24 h at 37° C., tested from 1.56 to 200 μg per mL
[7] = Pseudomonas aeruginosa, 27853, CAMHB, 24 h at 37° C., tested from 1.56 to 200 μg per mL
[8] = Enterococcus faecalis, 29212, CAMHB, 24 h at 37° C., tested from 1.56 to 200 μg per mL
[9] = Staphylococcus aureus, 29213, CAMHB, 24 h at 37° C., tested from 1.56 to 200 μg per mL
[10] = Pseudomonas aeruginosa, 39324, CAMHB, 24 h at 37° C., tested from 1.56 to 200 μg per mL
[11] = Pseudomonas aeruginosa, 27853, 24 h
[12] = Enterococcus faecalis, 29212, 24 h
[13] = Staphylococcus aureus, 29213, 24 h
[14] = Pseudomonas aeruginosa, 39324, 24 h

SMILES | MIC [1, 6] [mg/L] | MIC [2, 7] [mg/L] | MIC [3, 8] [mg/L] | MIC [4, 9] [mg/L] | MIC [5, 10] [mg/L] | MIC ([1]; Escherichia coli, 25922, 24 h) [mg/L] | MIC [2, 11] [mg/L] | MIC [3, 12] [mg/L] | MIC [4, 13] [mg/L] | MIC [5, 14] [mg/L]
C[C@H](CCC(=O)NCCNCCNCCNCCN)[C@H]1CC[C@H]2[C@@H]3[C@H](O)C[C@@H]4C[C@H](O)CC[C@]4(C)[C@H]3C[C@H](O)[C@]12C [Compound J, 3α,7α,12α-trihydroxy-5β-cholan-24-oic acid, N-(3,6,9-triaza-11-aminoundecyl)amide] | 75 (≈ 129 µM) | 75 (≈ 129 µM) | 18.7 (≈ 32.2 µM) | 37.5 (≈ 64.7 µM) | 37.5 (≈ 64.7 µM) |  |  |  |  | 
C[C@H](CCC(=O)NCCNCCNCCNCCNCCN)[C@H]1CC[C@H]2[C@@H]3[C@H](O)C[C@@H]4C[C@H](O)CC[C@]4(C)[C@H]3C[C@H](O)[C@]12C [Compound K, 3α,7α,12α-trihydroxy-12-deoxy-5β-cholan-24-oic acid, N-(3,6,9,12-tetraaza-14-aminotetradecyl)amide] | 75 (≈ 120 µM) | 75 (≈ 120 µM) | 15.7 (≈ 25.2 µM) | 37.5 (≈ 60.2 µM) | 75 (≈ 120 µM) |  |  |  |  | 
C[C@H](CCC(=O)NCCNCCNCCNCCNCCN)[C@H]1CC[C@H]2[C@@H]3[C@H](O[C@H]4O[C@H](CO)[C@@H](O)[C@H](O)[C@H]4O)C[C@@H]4C[C@H](O)CC[C@]4(C)[C@H]3C[C@H](O[C@H]3O[C@H](CO)[C@@H](O)[C@H](O)[C@H]3O)[C@]12C [Compound L, 3α-hydroxy-7α,12α-di(1'α-glucosyl)-5β-cholan-24-oic acid, N-(3,6,9,12-tetraaza-14-aminotetradecyl)amide] | > 200 | > 200 | > 200 | > 200 | > 150 |  |  |  |  | 
C[C@H](CCC(=O)NCCNCCNCCNCCN)[C@H]1CC[C@H]2[C@@H]3[C@H](O[C@H]4O[C@H](CO)[C@@H](O)[C@H](O)[C@H]4O)C[C@@H]4C[C@H](O)CC[C@]4(C)[C@H]3C[C@H](O[C@H]3O[C@H](CO)[C@@H](O)[C@H](O)[C@H]3O)[C@]12C [Compound M, 3α-hydroxy-7α,12α-di(1'α-glucosyl)-5β-cholan-24-oic acid, N-(3,6,9-triaza-11-aminoundecyl)amide] | > 200 | > 200 | > 200 | > 200 | > 150 |  |  |  |  | 
C[C@H](CCC(=O)NCCNCCNCCNCCNCCN)[C@H]1CC[C@H]2[C@@H]3CC[C@@H]4C[C@H](O)CC[C@]4(C)[C@H]3CC[C@]12C [Compound N, 3α-hydroxy-7,12-dideoxy-5β-cholan-24-oic acid (or lithocholic acid), N-(3,6,9,12-tetraaza-14-aminotetradecyl)amide] | > 200 | 200 (≈ 338 µM) | 200 (≈ 338 µM) | 50 (≈ 84.6 µM) | 200 (≈ 338 µM) |  |  |  |  | 
C[C@H](CCC(=O)O)[C@H]1CC[C@H]2[C@@H]3[C@H](O)C[C@@H]4C[C@H](O)CC[C@]4(C)[C@H]3C[C@H](O)[C@]12C [cholic acid sodium salt, reference compound] |  |  |  |  |  | > 200 | > 200 | > 200 | > 200 | > 200
C[C@H](CCC(=O)O)[C@H]1CC[C@H]2[C@@H]3CC[C@@H]4C[C@H](O)CC[C@]4(C)[C@H]3C[C@H](O)[C@]12C [deoxycholic acid sodium salt, reference compound] | > 200 |  |  |  |  |  | > 200 | > 200 | > 200 | > 200
NCCCNCCCCNCCCN [spermine, N-[N-(3-aminopropyl)-4-aminobutyl]-1,3-diaminopropane, reference compound] | > 200 | > 200 | > 200 | > 200 | > 150 |  |  |  |  | 
NCCNCCNCCNCCN [tetraethylenepentamine, reference compound] | > 200 | > 200 | > 200 | > 200 | > 150 |  |  |  |  | 

Reference: patent publication US5744453A, “Polyamine conjugates for treatment of infection” (priority 1996, dated 1998)
